# Reference: ChEMBL document CHEMBL1201862, “PubChem BioAssay data set” (2004)
#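 Where inhibition never reached the appropriate level, the endpoint shown equals the highest concentration tested. Otherwise, values were interpolated linearly from a five-concentration, 48-hour dose response in 96-well plates. Here, GI50 denotes the concentration required for 50% inhibition of growth.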 Active and inactive are the calls of the source. No stated cut-off is given here; in the data, active = GI50 up to about 1.1 µM and inactive = higher.
# What was measured:
# Assay in all cases: growth of human tumour cells (NCI), 48 h
# RXF 393 = tested on: RXF 393
# SK-MEL-5 = tested on: SK-MEL-5
# HT-29 = tested on: HT-29
# CAKI-1 = tested on: CAKI-1
# MOLT-4 = tested on: MOLT-4
# OVCAR-5 = tested on: OVCAR-5
# OVCAR-4 = tested on: OVCAR-4
# CCRF-CEM = tested on: CCRF-CEM
# NCI-H226 = tested on: NCI-H226
# HOP-92 = tested on: HOP-92
# IGROV-1 = tested on: IGROV-1
# UACC-62 = tested on: UACC-62
# SNB-75 = tested on: SNB-75
# EKVX = tested on: EKVX
# MDA-N = tested on: MDA-N
# SK-MEL-2 = tested on: SK-MEL-2
# 786-0 = tested on: 786-0
# U-251 = tested on: U-251
# SF-539 = tested on: SF-539
# LOX IMVI = tested on: LOX IMVI
Compound,GI50 (RXF 393),GI50 (SK-MEL-5),GI50 (HT-29),GI50 (CAKI-1),GI50 (MOLT-4),GI50 (OVCAR-5),GI50 (OVCAR-4),GI50 (CCRF-CEM),GI50 (NCI-H226),GI50 (HOP-92),GI50 (IGROV-1),GI50 (UACC-62),GI50 (SNB-75),GI50 (EKVX),GI50 (MDA-N),GI50 (SK-MEL-2),GI50 (786-0),GI50 (U-251),GI50 (SF-539),GI50 (LOX IMVI)
NC(Cc1cc(Br)c(O)c(Br)c1)C(=O)O (stereo not given),> 100 µM (inactive),> 100 µM (inactive),> 100 µM (inactive),> 100 µM (inactive),> 100 µM (inactive),> 100 µM (inactive),> 100 µM (inactive),> 100 µM (inactive),> 100 µM (inactive),> 100 µM (inactive),> 100 µM (inactive),> 100 µM (inactive),> 100 µM (inactive),> 100 µM (inactive),> 100 µM (inactive),> 100 µM (inactive),> 100 µM (inactive),> 100 µM (inactive),> 100 µM (inactive),> 100 µM (inactive)
Clc1ccc(/C(=C\c2ccccc2)Cn2ccnc2)cc1,17.3 µM (inactive),12.8 µM (inactive),15.5 µM (inactive),7.21 µM (inactive),21.1 µM (inactive),19.8 µM (inactive),30.5 µM (inactive),24.5 µM (inactive),13.6 µM (inactive),14.8 µM (inactive),19.6 µM (inactive),16.7 µM (inactive),26.2 µM (inactive),21.9 µM (inactive),14.9 µM (inactive),14.3 µM (inactive),17.4 µM (inactive),15.2 µM (inactive),16.3 µM (inactive),8.83 µM (inactive)
O=S(=O)(c1ccc(-c2nnc(-c3ccc(F)cc3)o2)cc1)c1ccc(-c2nnc(-c3ccc(F)cc3)o2)cc1,22.2 µM (inactive),> 100 µM (inactive),> 100 µM (inactive),> 100 µM (inactive),> 100 µM (inactive),> 100 µM (inactive),> 100 µM (inactive),> 100 µM (inactive),61.5 µM (inactive),82.4 µM (inactive),> 100 µM (inactive),> 100 µM (inactive),11.1 µM (inactive),> 100 µM (inactive),> 100 µM (inactive),> 100 µM (inactive),26.8 µM (inactive),21.7 µM (inactive),50.4 µM (inactive),> 100 µM (inactive)
CCCNC(=S)N/C=C1\C(=O)Nc2ccccc2C1=O,> 100 µM (inactive),> 100 µM (inactive),> 100 µM (inactive),> 100 µM (inactive),> 100 µM (inactive),> 100 µM (inactive),> 100 µM (inactive),> 100 µM (inactive),> 100 µM (inactive),> 100 µM (inactive),> 100 µM (inactive),> 100 µM (inactive),83.2 µM (inactive),> 100 µM (inactive),> 100 µM (inactive),> 100 µM (inactive),> 100 µM (inactive),> 100 µM (inactive),> 100 µM (inactive),> 100 µM (inactive)
COc1cc2cc(C(=O)N3CC(COS(C)(=O)=O)c4c3cc(N)c3ccccc43)[nH]c2c(OC)c1OC (stereo not given),0.0177 µM (active),< 0.01 µM (active),< 0.01 µM (active),0.0211 µM (active),0.0149 µM (active),0.021 µM (active),< 0.0376 µM (active),0.0128 µM (active),0.0469 µM (active),< 0.0266 µM (active),0.0228 µM (active),0.0146 µM (active),< 0.01 µM (active),0.0216 µM (active),0.0195 µM (active),0.0716 µM (active),< 0.01 µM (active),0.0141 µM (active),0.0177 µM (active),0.0172 µM (active)
CN(C)C(=S)SN(C)C(=O)Nc1ccccc1,1.18 µM (inactive),3.28 µM (inactive),1.69 µM (inactive),26.1 µM (inactive),2.76 µM (inactive),12.2 µM (inactive),5.06 µM (inactive),0.993 µM (active),45.8 µM (inactive),3.5 µM (inactive),26 µM (inactive),3.62 µM (inactive),28.6 µM (inactive),> 86.9 µM (inactive),9.53 µM (inactive),39.4 µM (inactive),6.62 µM (inactive),18 µM (inactive),34.1 µM (inactive),8.26 µM (inactive)
O=[N+]([O-])c1ccc(CSCc2ccc(Cl)cc2)cc1,> 100 µM (inactive),> 100 µM (inactive),78.3 µM (inactive),> 100 µM (inactive),17.5 µM (inactive),> 100 µM (inactive),> 100 µM (inactive),14.5 µM (inactive),> 100 µM (inactive),47.8 µM (inactive),> 100 µM (inactive),> 100 µM (inactive),> 100 µM (inactive),> 100 µM (inactive),> 100 µM (inactive),> 100 µM (inactive),> 100 µM (inactive),> 100 µM (inactive),> 100 µM (inactive),> 100 µM (inactive)
CC(C)(C)NCCC(O)c1cc(C(F)(F)F)nc2c(C(F)(F)F)cccc12 (stereo not given),6.53 µM (inactive),12.5 µM (inactive),6.08 µM (inactive),4.25 µM (inactive),4.12 µM (inactive),15.2 µM (inactive),12.3 µM (inactive),5.57 µM (inactive),17.3 µM (inactive),12.3 µM (inactive),10.3 µM (inactive),12.6 µM (inactive),11.1 µM (inactive),14 µM (inactive),11.5 µM (inactive),11.2 µM (inactive),6.98 µM (inactive),7.53 µM (inactive),14.7 µM (inactive),1.12 µM (inactive)
COc1cc(C)cc2c1C(=O)C(Br)=CC2=O,3.31 µM (inactive),12.6 µM (inactive),8.22 µM (inactive),1.63 µM (inactive),2.39 µM (inactive),19.8 µM (inactive),2.75 µM (inactive),0.867 µM (active),17.4 µM (inactive),3.09 µM (inactive),17.7 µM (inactive),9.71 µM (inactive),16.9 µM (inactive),17.7 µM (inactive),3.56 µM (inactive),14.4 µM (inactive),3.92 µM (inactive),19.5 µM (inactive),15.2 µM (inactive),8.59 µM (inactive)
c1ccc(COC2NCCN2Cc2ccccc2)cc1 (stereo not given),> 100 µM (inactive),> 100 µM (inactive),> 100 µM (inactive),> 100 µM (inactive),> 100 µM (inactive),> 100 µM (inactive),> 100 µM (inactive),> 100 µM (inactive),> 100 µM (inactive),> 100 µM (inactive),> 100 µM (inactive),63.2 µM (inactive),97.7 µM (inactive),51.2 µM (inactive),> 100 µM (inactive),> 100 µM (inactive),> 100 µM (inactive),> 100 µM (inactive),> 100 µM (inactive),> 100 µM (inactive)
